Reference: ChEMBL document CHEMBL1938270, “Synthesis and antifungal activity of natural product-based 6-alkyl-2,3,4,5-tetrahydropyridines” (J Nat Prod, 2011)
Converted amounts (≈) assume the structure as drawn. The source made the active and inactive calls. The rule behind the calls is not given here.

How the values were obtained:
Candida albicans [1] = test: Antifungal activity against Candida albicans ATCC 90028 after 24 to 72 hrs by M27-A2 CLSI method; format: functional
KB = test: Cytotoxicity against human KB cells at 10 ug/ml by neutral red assay; format: cell-based
BT-549 = test: Cytotoxicity against human BT549 cells at 10 ug/ml by neutral red assay; format: cell-based
Pichia kudriavzevii [2] = test: Antifungal activity against Candida Krusei ATCC 6258 after 24 to 72 hrs by M27-A2 CLSI method; format: functional
Vero = test: Cytotoxicity against african green monkey Vero cells at 10 ug/ml by neutral red assay; format: cell-based; conditions: chlorocebus sabaeus
LLC-PK1 = test: Cytotoxicity against pig LLC-PK1 cells at 10 ug/ml by neutral red assay; format: cell-based, Sus scrofa
Cryptococcus neoformans [3] = test: Antifungal activity against Cryptococcus neoformans ATCC 90113 after 24 to 72 hrs by M27-A2 CLSI method; format: functional
Nakaseomyces glabratus [4] = test: Antifungal activity against Candida glabrata ATCC 90030 after 24 to 72 hrs by M27-A2 CLSI method; format: functional
SK-MEL = test: Cytotoxicity against human SK-MEL cells at 10 ug/ml by neutral red assay; format: cell-based
SK-OV-3 = test: Cytotoxicity against human SKOV3 cells at 10 ug/ml by neutral red assay; format: cell-based
Candida albicans [5] = test: Antifungal activity against Candida albicans ATCC 90028 at 20 ug/ml after 24 to 72 hrs by M27-A2 CLSI method; format: functional, organism-based
Aspergillus fumigatus [6] = test: Antifungal activity against Aspergillus fumigatus ATCC 204305 after 24 to 72 hrs by M27-A2 CLSI method; format: functional, organism-based
Aspergillus fumigatus [7] = test: Antifungal activity against Aspergillus fumigatus ATCC 204305 at 20 ug/ml after 24 to 72 hrs by M27-A2 CLSI method; format: functional, organism-based
Nakaseomyces glabratus [8] = test: Antifungal activity against Candida glabrata ATCC 90030 at 20 ug/ml after 24 to 72 hrs by M27-A2 CLSI method; format: functional, organism-based
Cryptococcus neoformans [9] = test: Antifungal activity against Cryptococcus neoformans ATCC 90113 at 20 ug/ml after 24 to 72 hrs by M27-A2 CLSI method; format: functional, organism-based
Pichia kudriavzevii [10] = test: Antifungal activity against Candida Krusei ATCC 6258 at 20 ug/ml after 24 to 72 hrs by M27-A2 CLSI method; format: functional, organism-based

Compound | Activity (KB) | Activity (BT-549) | MFC (Pichia kudriavzevii [2]) [µg/mL] | MIC (Pichia kudriavzevii [2]) [µg/mL] | Activity (Vero) | Activity (LLC-PK1) | MFC (Cryptococcus neoformans [3]) [µg/mL] | MIC (Cryptococcus neoformans [3]) [µg/mL] | MFC (Nakaseomyces glabratus [4]) [µg/mL] | MIC (Nakaseomyces glabratus [4]) [µg/mL] | Activity (SK-MEL) | Activity (SK-OV-3) | MIC (Candida albicans [5]) | also measured
CCCCCCCCCCCCCCCCC1=NCCCC1 | Non-toxic | Non-toxic | 7.5 (≈ 24.4 µM) | 7.5 (≈ 24.4 µM) | Non-toxic | Non-toxic | 3.8 (≈ 12.4 µM) | 3.8 (≈ 12.4 µM) | 7.5 (≈ 24.4 µM) | 7.5 (≈ 24.4 µM) | Non-toxic | Non-toxic | – | MFC (Candida albicans [1]): 15 µg/mL (≈ 48.8 µM); MIC (Candida albicans [1]): 15 µg/mL (≈ 48.8 µM)
CCCCCCCCCCCCCCCC1=NCCCC1 | Non-toxic | Non-toxic | 15 (≈ 51.1 µM) | 10 (≈ 34.1 µM) | Non-toxic | Non-toxic | 12.5 (≈ 42.6 µM) | 11.2 (≈ 38.2 µM) | 15 (≈ 51.1 µM) | 10 (≈ 34.1 µM) | Non-toxic | Non-toxic | inactive | –
CCCCCCCCCCCCCC1=NCCCC1 | – | – | – | – | – | – | – | – | – | – | – | – | – | Activity (Candida albicans [5]): inactive; Activity (Aspergillus fumigatus [6]): inactive; Activity (Aspergillus fumigatus [7]): inactive; Activity (Nakaseomyces glabratus [8]): inactive; Activity (Cryptococcus neoformans [9]): inactive
CCCCCCCCCCCCC1=NCCCC1 | – | – | – | – | – | – | – | – | – | – | – | – | – | Activity (Candida albicans [5]): inactive; Activity (Aspergillus fumigatus [6]): inactive; Activity (Aspergillus fumigatus [7]): inactive; Activity (Nakaseomyces glabratus [8]): inactive; Activity (Cryptococcus neoformans [9]): inactive
CCCCCCCCCCCCCCC1=NCCCC1 | Non-toxic | Non-toxic | – | – | Non-toxic | Non-toxic | 10 (≈ 35.8 µM) | 10 (≈ 35.8 µM) | – | – | Non-toxic | Non-toxic | inactive | MIC (Pichia kudriavzevii [10]): inactive; MIC (Nakaseomyces glabratus [8]): inactive
C[C@@H]1[C@H](O)[C@@H](C)/C=C/C=C/C=C/C=C/C=C/C=C/C=C/[C@H](O[C@@H]2O[C@H](C)[C@@H](O)[C@H](N)[C@@H]2O)C[C@@H]2O[C@](O)(C[C@@H](O)C[C@@H](O)[C@H](O)CC[C@@H](O)C[C@@H](O)CC(=O)O[C@H]1C)C[C@H](O)[C@H]2C(=O)O [AMPHOTERICIN B] | – | – | 1.25 (≈ 1.35 µM) | 1.25 (≈ 1.35 µM) | – | – | 0.47 (≈ 0.509 µM) | 0.47 (≈ 0.509 µM) | 0.94 (≈ 1.02 µM) | 0.63 (≈ 0.682 µM) | – | – | – | MIC (Candida albicans [1]): 0.47 µg/mL (≈ 0.509 µM)
CCCCCCCCCCCCCCCCCCC1=NCCCC1 | Non-toxic | Non-toxic | – | – | Non-toxic | Non-toxic | 15 (≈ 44.7 µM) | 10 (≈ 29.8 µM) | 15 (≈ 44.7 µM) | 10 (≈ 29.8 µM) | Non-toxic | Non-toxic | inactive | MIC (Pichia kudriavzevii [10]): inactive
CCCCCCCCCCCCCCCCCC1=NCCCC1 | Non-toxic | Non-toxic | 15 (≈ 46.6 µM) | 15 (≈ 46.6 µM) | Non-toxic | Non-toxic | 3.8 (≈ 11.8 µM) | 2.5 (≈ 7.77 µM) | 7.5 (≈ 23.3 µM) | 5 (≈ 15.5 µM) | Non-toxic | Non-toxic | inactive | –
